Source: patent US4699924A, “Skin treatment composition” (priority 1983, dated 1987)
Counter-ions that a name gives are not always drawn. Like-named read-outs stand apart in the source and are kept apart here.

Assays:
[1] = Cloud point temperature of a 0.025M aqueous solution of polyoxyethylene(8)nonylphenyl ether with 5% by weight additive; format: physicochemical; settings: for Effect on the cloud point temperature of nonionic surfactants: screening of non-electrolytes, in words
Procedure: An activity enhancer is accordingly defined as a non-electrolyte which is capable, at a concentration of 5% by weight of increasing the cloud point temperature of a 0.025M aqueous solution of polyoxyethylene(8)nonylphenyl ether by at least 10° C. Preferably the activity enhancer is one which is capable of increasing the cloud point temperature by at least 15° C., most preferably by at least 20° C.
It should be explained that the "cloud point" is a measure of the inverse solubility of a nonionic surfactant with temperature and can be determined by heating a standard clear aqueous solution of the nonionic surfactant until the solution becomes visibly cloudy and then measuring the temperature.
The cloud point temperature can conveniently be determined automatically using the equipment and method described by Baum et al in Mat. Res. Std. 4 26 (1964).
Examples of suitable compounds functioning as activity enhancers, together with the respective elevated cloud point temperature obtained in each case when using the standard test defined hereinbefore are listed below in Table 1.

[2] = tested on: guinea pig foot pad stratum corneum; test: Increase in extensibility of guinea pig foot pad stratum corneum; parameters: Increase in stratum corneum extensibility: unit not given here; settings: 0.2 M 2-hydroxyoctanoic acid + additive at 5% w/w; 3 hours at 20° C.; relative humidity 65%
Procedure: The ability of an additive to enhance the delivery to skin of 2-hydroxyoctanoic acid was measured in terms of the increase in extensibility of guinea pig foot pad stratum corneum following contact with each solution.
In this experiment, pieces of guinea pig foot pad stratum corneum, equilibrated at a relative humidity of 65%, were immersed in each solution for 3 hours at 20° C., and then removed, blotted dry and re-equilibrated at the same relative humidity. The extensibility of each piece of guinea pig foot pad stratum corneum was measured before and after this treatment in an extensiometer according to the method described in European Pat. No. 7785.

physchem = settings: octanol/water
[3] = Table 1, activity enhancer 5% by weight, 0.025 M polyoxyethylene(8)nonylphenyl ether
[4] = Table 1, activity enhancer 5% by weight, control 33.5 °C., in °C
[5] = table of extensibility results, additive at 5% w/w, in °C
[6] = Table 2, compound which is not an activity enhancer, 5% by weight
[7] = Table 2, compound which is not an activity enhancer, 5% by weight, control 33.5 °C.

4-methyl-6-(2,4,6-trimethyl-pentyl)-2-(1H)--pyridone
Log partition coefficient (octanol/water): 1.28

C1COCCO1 [1,4 Dioxane]
Cloud point temperature [1, 3]: 44.0 °C | Elevation of cloud point temperature [1, 4]: 10.5

CC(O)C(=O)O (stereo not drawn) [2-hydroxypropionic acid]
Increase in stratum corneum extensibility [2]: 17.1 | Cloud point temperature [1, 3]: 45.0 °C | Elevation of cloud point temperature [1, 4]: 11.5 | Elevation of cloud point temperature [1, 5]: 11.5

CCCCCCC(=O)C(=O)O [2-ketooctanoic acid]
logP (physchem): 3.2

CC(C)CO [2-methyl propan-1-ol]
Cloud point temperature [1, 6]: 41.0 °C | Elevation of cloud point temperature [1, 7]: 7.5 °C

CC(C)(C)O [2-methyl propan-2-ol]
Cloud point temperature [1, 3]: 55.0 °C | Elevation of cloud point temperature [1, 4]: 21.5

O=C1CCCN1 [2-pyrrolidone]
Increase in stratum corneum extensibility [2]: 28.0 | Elevation of cloud point temperature [1, 5]: 15.5

CCC1OC(=O)C(C)C(OC2CC(C)(OC)C(O)C(C)O2)C(C)C(OC2OC(C)C(O)C(N(C)C)C2O)C(C)(O)CC(C)C(=O)C(C)C(O)C1(C)O (stereo not drawn) [4'-hydroxyerythromycin]
Log partition coefficient (octanol/water): 1.44

CN1C(=O)NC(=O)C(C)(C)C1=O [5,5-dimethyl, 1-methyl barbituric acid]
logP (physchem): 1.09

CCC1(c2ccccc2)C(=O)NC(=O)NC1=O [5-ethyl-5-phenyl barbituric acid, reference compound]
Log partition coefficient (octanol/water at 20° C.): 1.42

CC(C)=O [Acetone]
Cloud point temperature [1, 3]: 46.3 °C | Elevation of cloud point temperature [1, 4]: 12.8

CC(O)CCO (stereo not drawn) [Butan-1,3-diol]
Cloud point temperature [1, 6]: 41.5 °C | Elevation of cloud point temperature [1, 7]: 8.0 °C

OCCCCO [Butan-1,4-diol]
Cloud point temperature [1, 3]: 45.0 °C | Elevation of cloud point temperature [1, 4]: 11.5

CCCCO [Butan-1-ol]
Increase in stratum corneum extensibility [2]: 13.2 | Cloud point temperature [1, 6]: 36.3 °C | Elevation of cloud point temperature [1, 7]: 2.8 °C | Effect on the cloud point temperature of nonionic surfactants [1]: reduce the cloud point temperature | Elevation of cloud point temperature [1, 5]: 2.8

OC1CCCCC1 [Cyclohexanol]
Cloud point temperature [1, 6]: 11.0 °C | Elevation of cloud point temperature [1, 7]: -22.5 °C | Effect on the cloud point temperature of nonionic surfactants [1]: reduce the cloud point temperature

CC(O)COCC(C)O (stereo not drawn) [Di(2-hydroxypropyl) ether]
Increase in stratum corneum extensibility [2]: 21.6 | Cloud point temperature [1, 3]: 44.8 °C | Elevation of cloud point temperature [1, 4]: 11.3 | Elevation of cloud point temperature [1, 5]: 11.3

C[S+](C)[O-] [Dimethyl sulphoxide]
Increase in stratum corneum extensibility [2]: 5 | Cloud point temperature [1, 6]: 33.9 °C | Elevation of cloud point temperature [1, 7]: 0.4 °C | Elevation of cloud point temperature [1, 5]: -0.5

OCCO [Ethan-1,2-diol]
Increase in stratum corneum extensibility [2]: 5 | Cloud point temperature [1, 6]: 33.0 °C | Elevation of cloud point temperature [1, 7]: -0.5 °C | Elevation of cloud point temperature [1, 5]: -0.5

CCOC(=O)C(C)O (stereo not drawn) [Ethyl-2hydroxypropanoate]
Cloud point temperature [1, 3]: 52.1 °C | Elevation of cloud point temperature [1, 4]: 18.6

CC(O)CCC(C)O (stereo not drawn) [Hexan-2,5-diol]
Increase in stratum corneum extensibility [2]: 37.0 | Cloud point temperature [1, 3]: 52.0 °C | Elevation of cloud point temperature [1, 4]: 18.5 | Elevation of cloud point temperature [1, 5]: 18.5

C1COCCN1 [Morpholine]
Cloud point temperature [1, 6]: 40.0 °C | Elevation of cloud point temperature [1, 7]: 6.5 °C

CC(=O)Nc1ccccc1C(=O)O [N--acetyl O--aminobenzoic acid]
Log partition coefficient (octanol/water at 20° C.): 1.88

O=Cc1ccccc1O [O--hydroxybenzaldehyde]
logP (physchem): 1.7

CCOCCOCCO [POE(2) ethyl ether, polyoxyethylene(2) ethyl ether]
Cloud point temperature [1, 3]: 46.0 °C | Elevation of cloud point temperature [1, 4]: 12.5

COCCOCCO [POE(2) methyl ether]
Cloud point temperature [1, 3]: 43.5 °C | Elevation of cloud point temperature [1, 4]: 10.0

CC(O)CC(C)O (stereo not drawn) [Pentan-2,4-diol]
Increase in stratum corneum extensibility [2]: 17.0 | Cloud point temperature [1, 3]: 48.0 °C | Elevation of cloud point temperature [1, 4]: 14.5 | Elevation of cloud point temperature [1, 5]: 14.5

OCC(O)CO [Propan-1,2,3-triol]
Increase in stratum corneum extensibility [2]: 5 | Cloud point temperature [1, 6]: 32.2 °C | Elevation of cloud point temperature [1, 7]: -1.3 °C | Effect on the cloud point temperature of nonionic surfactants [1]: reduce the cloud point temperature | Elevation of cloud point temperature [1, 5]: -1.3

CC(O)CO (stereo not drawn) [Propan-1,2-diol]
Increase in stratum corneum extensibility [2]: 12.6 | Cloud point temperature [1, 6]: 39.0 °C | Elevation of cloud point temperature [1, 7]: 5.5 °C | Elevation of cloud point temperature [1, 5]: 5.5

CCCO [Propan-1-ol]
Cloud point temperature [1, 3]: 53.0 °C | Elevation of cloud point temperature [1, 4]: 19.5

CC(C)O [Propan-2-ol]
Cloud point temperature [1, 3]: 56.0 °C | Elevation of cloud point temperature [1, 4]: 22.5

C1CCOC1 [Tetrahydrofuran]
Cloud point temperature [1, 3]: 45.0 °C | Elevation of cloud point temperature [1, 4]: 11.5

Nc1ncnc2c1ncn2[C@@H]1O[C@H](COP(=O)(O)OP(=O)(O)O)[C@@H](O)[C@H]1O [adenosine diphosphate]
logP (physchem): 0.89

Nc1ncnc2c1ncn2[C@@H]1O[C@H](COP(=O)(O)OP(=O)(O)OP(=O)(O)O)[C@@H](O)[C@H]1O [adenosine triphosphate]
logP (physchem): 1.64

CC(N)Cc1ccccc1 (stereo not drawn) [amphetamine, reference compound]
Log partition coefficient (octanol/water at 20° C.): 1.63

O=C(O)CCCCCCCC(=O)O [azelaic acid, reference compound]
Log partition coefficient (octanol/water): 1.57

c1ccc2[nH]cnc2c1 [benzimidazole]
Log partition coefficient (octanol/water at 20° C.): 1.34

CC1(C)S[C@@H]2[C@H](NC(=O)Cc3ccccc3)C(=O)N2[C@H]1C(=O)O [benzyl pencillin, reference compound]
Log partition coefficient (octanol/water): 1.83

COc1ccc2c3c1O[C@H]1[C@@H](O)C=C[C@H]4[C@@H](C2)N(C)CC[C@@]341 [codeine, reference compound]
logP (physchem): 1.01

CC[C@H]1OC(=O)[C@H](C)[C@@H](O[C@H]2C[C@@](C)(OC)[C@@H](O)[C@H](C)O2)[C@H](C)[C@@H](O[C@@H]2O[C@H](C)C[C@H](N(C)C)[C@H]2O)[C@](C)(O)C[C@@H](C)C(=O)[C@H](C)[C@@H](O)[C@]1(C)O [erythromycin, reference compound]
Log partition coefficient (octanol/water): 1.26

CCOC(=O)c1cccnc1 [ethyl nicotinate]
Log partition coefficient (octanol/water at 20° C.): 1.32

O=C(O)c1cccc(O)c1 [m-hydroxybenzoic]
Log partition coefficient (octanol/water): 1.50

Cc1cccc(S(N)(=O)=O)c1 [m-methylbenzene sulphonamide]
Log partition coefficient (octanol/water at 20° C.): 0.85

NS(=O)(=O)c1cccc([N+](=O)[O-])c1 [m-nitrobezene sulphonamide]
Log partition coefficient (octanol/water at 20° C.): 0.55

NC(=O)c1cccnc1 [niacinamide, reference compound]
Log partition coefficient (octanol/water at 20° C.): 1.37

Oc1ccccc1O [o-dihydroxybenzene]
Log partition coefficient (octanol/water at 20° C.): 0.80

Cc1ccccc1S(N)(=O)=O [o-methylbenzene sulphonamide]
Log partition coefficient (octanol/water): 0.84

Nc1ccc(C(=O)O)cc1 [p-aminobenzoic acid, reference compound]
Log partition coefficient (octanol/water): 0.68

Oc1ccc(O)cc1 [p-dihyroxybenzene]
Log partition coefficient (octanol/water): 0.59

Cc1ccc(S(N)(=O)=O)cc1 [p-methylbenzene sulphonamide]
Log partition coefficient (octanol/water at 20° C.): 0.82

NS(=O)(=O)c1ccc([N+](=O)[O-])cc1 [p-nitrobenzene sulphonamide]
Log partition coefficient (octanol/water at 20° C.): 0.64

CCN(CC)CCOC(=O)c1ccc(N)cc1 [procaine, reference compound]
Log partition coefficient (octanol/water): 1.87

O=C1NS(=O)(=O)c2ccccc21 [saccharin]
Log partition coefficient (octanol/water): 0.91

O=C(O)c1ccccc1O [salicylic acid, reference compound]
Log partition coefficient (octanol/water at 20° C.): 2.26

OC[C@@H](O)[C@@H](O)[C@H](O)[C@@H](O)CO [sorbitol]
Effect on the cloud point temperature of nonionic surfactants [1]: reduce the cloud point temperature

O=C1C[C@@H]2OCC=C3CN4CC[C@]56c7ccccc7N1[C@H]5[C@H]2[C@H]3C[C@H]46 [strychnine]
Log partition coefficient (octanol/water): 1.93

COc1cc(NS(=O)(=O)c2ccc(N)cc2)ncn1 [sulphamonomethoxine, reference compound]
logP (physchem): 0.85

Nc1ccc(S(=O)(=O)Nc2ccnn2-c2ccccc2)cc1 [sulphaphenzole, reference compound]
logP (physchem): 1.57

COC1=CC=C2[C@H]3Cc4ccc(OC)c5c4[C@@]2(CCN3C)[C@H]1O5 [thebaine]
logP (physchem): 1.91

CCOC(=O)CC(O)(CC(=O)OCC)C(=O)OCC [triethyl citrate]
Log partition coefficient (octanol/water at 20° C.): 0.67

CC1(C)SC2C(NC(=O)C(O)c3ccccc3)C(=O)N2C1C(=O)O (stereo not drawn) [α-hydroxy benzyl penicillin]
Log partition coefficient (octanol/water at 20° C.): 1.40
